For data set [1] the following is noted: subchronic.
[2] abbreviates: subchronic, duration: 90 days, oral, diet.

Consider `CCCc1ccn(-c2ccccc2)n1` [1H-Pyrazole, 1-phenyl-3(or 5)-propyl-], for which the NOAEL (in general, the highest dose or exposure tested at which no adverse effect was seen) in data set [1] was found to be 25 mg/kg-day.
`CC(=O)c1nccs1` [2-Acetylthiazole] returned an NOAEL in the data set on Rattus norvegicus (setting [2]) of 50 mg/kg-day.
Take `CCC(=O)c1nccs1` [2-Propionylthiazole]: in the data set with Rattus norvegicus (setting [2]), the NOAEL came out at 50 mg/kg-day.
On the same count and under the same terms, with `c1csc(SSc2cccs2)c1` [2-Thienyl disulfide] the figure was 0.29 mg/kg-day.
For `Cc1ccc2c(c1)OC(=O)C2C` (stereo unspecified) [3,6-Dimethyl-1-benzofuran-2(3H)-one], the NOAEL in the data set with Rattus norvegicus (subchronic, duration: 90 days, oral) was 5.42 mg/kg-day.
Turning to `Cc1ncc2c(n1)CSC2` [5,7-Dihydro-2-methylthieno[3,4-d]pyrimidine], the NOAEL in the data set with Rattus norvegicus (subchronic, duration: 90 days) worked out at 6.6 mg/kg-day.
As to `CC(=O)c1ccnc(C)n1` [Ethanone, 1-(2-methyl-4-pyrimidinyl)-], the NOAEL in the data set with Rattus norvegicus (subchronic, duration: 90 days, Sprague-Dawley) was determined as 1 mg/kg-day.
`C[S+](C)CC[C@H](N)C(=O)O.[Cl-]` [L-Methylmethionine sulfonium chloride] registered an NOAEL in the data set on Rattus norvegicus (chronic, duration: 14 weeks, oral, diet, M/F, Wistar, no effects) of 250 mg/kg-day.
Consider `COCCO` [Methoxyethanol], for which, in the data set on Rattus norvegicus (chronic), the NOAEL came to 6 mg/kg-day.
Consider `COc1cnc(C)s1` [Thiazole, 5-methoxy-2-methyl-], for which the NOAEL in data set [1] (duration: 90 days) was found to be 8.6 mg/kg-day.
`COCCOC(C)OCc1ccccc1` (stereo unspecified) [{[1-(2-Methoxyethoxy)ethoxy]methyl}benzene] registered an NOAEL in the data set with Rattus norvegicus (chronic) of 6 mg/kg-day.

For the origin of these results see EPA's ToxValDB 9.5 (doi:10.2903/j.efsa.2011.1924).
